We go through 26 molecules from patent US8852554B2, “Radiolabelled PDE10 ligands” (Janssen Pharmaceutica NV, priority 2009, dated 2014).

Counter-ions that a name gives are not always drawn.

System in one data set: not given
Assay: not given
Details: not given
For orientation: melting point means the temperature of the solid-liquid transition. In turn, `COc1cccnc1COc1ccc(-c2nn(CCF)cc2-c2ccncc2)cc1` (as salt: succinate) [Compound B16, 2-[[4-[1-(2-fluoroethyl)-4-(4-pyridinyl)-1H-pyrazol-3-yl]phenoxy]methyl]-3-methoxy-pyridine.succinate] yielded a melting point of 178.95 °C.

For the molecule `Cc1cnc(COc2ccc(-c3nn(CCF)cc3-c3ccncc3)cc2)c(C)c1C` (as salt: succinate) [Compound B28, 2-[[4-[1-(2-fluoroethyl)-4-(4-pyridinyl)-1H-pyrazol-3-yl]phenoxy]methyl]-3,4,5-trimethyl-pyridine.succinate], the melting point worked out at 197.08 °C.

`COc1ccc(COc2ccc(-c3nn(CCCF)cc3-c3ccncc3)cc2)nc1` (as salt: succinate) [Compound B14, 2-[[4-[1-(3-fluoropropyl)-4-(4-pyridinyl)-1H-pyrazol-3-yl]phenoxy]methyl]-5-methoxy-pyridine.0.5 succinate]: the melting point worked out at 126.64 °C.

Turning to `FCCn1cc(-c2ccncc2)c(-c2ccc(OCc3cccc(Br)n3)cc2)n1` (as salt: succinate) [Compound B6, 2-bromo-6-[[4-[1-(2-fluoroethyl)-4-(4-pyridinyl)-1H-pyrazol-3-yl]phenoxy]methyl]-pyridine.0.75 succinate], the melting point is 108.78 °C.

As to `COc1cccc(COc2ccc(-c3nn(CCF)cc3-c3ccncc3)cc2)n1` (as salt: succinate) [Compound B24, 2-[[4-[1-(2-fluoroethyl)-4-(4-pyridinyl)-1H-pyrazol-3-yl]phenoxy]methyl]-6-methoxy-pyridine.succinate], the melting point was found to be 113.25 °C.

For `Cc1cccc(COc2ccc(-c3nn(CCF)cc3-c3ccncc3)cc2)n1` (as salt: hydrochloride) [Compound B1, 2-[[4-[1-(2-fluoroethyl)-4-(4-pyridinyl)-1H-pyrazol-3-yl]phenoxy]methyl]-6-methyl-pyridine.dihydrochloride], the melting point was found to be 227.22 °C.

In the case of `FCCOc1cccnc1COc1ccc(-c2nn(CC(F)(F)F)cc2-c2ccncc2)cc1` (as salt: succinate) [Compound B10, 3-(2-fluoroethoxy)-2-[[4-[4-(4-pyridinyl)-1-(2,2,2-trifluoroethyl)-1H-pyrazol-3-yl]phenoxy]methyl]-pyridine.succinate], the melting point came out at 140.72 °C.

Molecule `CCOc1cccc(COc2ccc(-c3nn(CCF)cc3-c3ccncc3)cc2)n1` (as salt: succinate) [Compound B25, 2-ethoxy-6-[[4-[1-(2-fluoroethyl)-4-(4-pyridinyl)-1H-pyrazol-3-yl]phenoxy]methyl]-pyridine.succinate] returned a melting point of 119.65 °C.

For another data set, the target named is T1, Rat recombinant PDE10A (rPDE10A) (Rattus norvegicus, UniProt Q9QYJ6).
T1 construct: made in house; host or cells: Sf9 insect cells (baculovirus)
T1 sequence (Q9QYJ6 1-794): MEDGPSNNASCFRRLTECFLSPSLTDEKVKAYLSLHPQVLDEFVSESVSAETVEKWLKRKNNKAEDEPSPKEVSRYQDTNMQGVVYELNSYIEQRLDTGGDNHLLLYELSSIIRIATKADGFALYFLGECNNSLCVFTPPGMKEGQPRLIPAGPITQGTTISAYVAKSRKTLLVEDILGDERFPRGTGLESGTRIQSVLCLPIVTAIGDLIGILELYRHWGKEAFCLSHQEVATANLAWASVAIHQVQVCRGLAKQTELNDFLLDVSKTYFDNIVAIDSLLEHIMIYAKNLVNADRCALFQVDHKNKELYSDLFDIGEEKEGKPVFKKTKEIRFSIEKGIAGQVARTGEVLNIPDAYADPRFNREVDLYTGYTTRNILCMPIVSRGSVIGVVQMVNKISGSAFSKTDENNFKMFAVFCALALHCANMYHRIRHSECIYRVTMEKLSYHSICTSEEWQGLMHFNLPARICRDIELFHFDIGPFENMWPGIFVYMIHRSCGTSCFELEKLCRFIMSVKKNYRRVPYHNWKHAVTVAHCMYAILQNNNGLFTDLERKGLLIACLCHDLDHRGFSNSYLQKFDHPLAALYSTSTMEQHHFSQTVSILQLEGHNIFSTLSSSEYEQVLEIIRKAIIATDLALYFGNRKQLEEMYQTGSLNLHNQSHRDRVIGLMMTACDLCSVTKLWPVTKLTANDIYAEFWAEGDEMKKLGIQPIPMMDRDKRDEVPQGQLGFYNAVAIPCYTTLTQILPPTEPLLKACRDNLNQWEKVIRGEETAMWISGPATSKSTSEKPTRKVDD
In words: rat PDE10A2-cAMP inhibition, in vitro SPA assay. Format: biochemical. As to conditions: 60 nM cAMP substrate. The method, then:
Rat recombinant PDE10A (rPDE10A) was expressed in Sf9 cells using a recombinant rPDE10A baculovirus construct. Cells were harvested after 48 h of infection and the rPDE10A protein was purified by metal chelate chromatography on Ni-sepharose 6FF. Tested compounds were dissolved and diluted in 100% DMSO to a concentration 100 fold of the final concentration in the assay. Compound dilutions (0.4 μl) were added in 384 well plates to 20 μl of incubation buffer (50 mM Tris pH 7.8, 8.3 mM MgCl2, 1.7 mM EGTA). 10 μl of rPDE10A enzyme in incubation buffer was added and the reaction was started by addition of 10 μl substrate to a final concentration of 60 nM cAMP and 0.008 μCi 3H-cAMP. The reaction was incubated for 60 minutes at room temperature. […] After sedimentation of the beads during 30 minutes, the radioactivity was measured in a Perkin Elmer Topcount scintillation counter and results were expressed as cpm. For blanc values the enzyme was omitted from the reaction and replaced by incubation buffer. Control values were obtained by addition of a final concentration of 1% DMSO instead of compound.
One may read the IC50 as the midpoint of a concentration-inhibition curve. Take `FCCn1cc(-c2ccncc2)c(-c2ccc(OCc3cccc(C4CC4)n3)cc2)n1` [Compound B8, 2-Cyclopropyl-6-[[4-[1-(2-fluoroethyl)-4-(4-pyridinyl)-1H-pyrazol-3-yl]phenoxy]methyl]-pyridine.succinate]: the IC50 was 33.1 nM.

The term pIC50 denotes the negative decadic logarithm of the IC50, by convention in mol/L. `Cc1cccc(COc2ccc(-c3nn(CCCF)cc3-c3ccncc3)cc2)n1` [Compound B2, 2-[[4-[1-(3-fluoropropyl)-4-(4-pyridinyl)-1H-pyrazol-3-yl]phenoxy]methyl]-6-methyl-pyridine.hydrochloride]: the negative logarithm of the IC50 (pIC50) is on record as 7.7.

With `Cc1cnc(COc2ccc(-c3nn(CCF)cc3-c3ccncc3)cc2)c(C)c1` [Compound B3, 2-[[4-[1-(2-fluoroethyl)-4-(4-pyridinyl)-1H-pyrazol-3-yl]phenoxy]methyl]-3,5-dimethyl-pyridine.succinate], the IC50 is 1.62 nM.

For `FCCn1cc(-c2ccncc2)c(-c2ccc(OCc3cccc(C(F)(F)F)n3)cc2)n1` [Compound B7, 2-[[4-[1-(2-fluoroethyl)-4-(4-pyridinyl)-1H-pyrazol-3-yl]phenoxy]methyl]-6-(trifluoromethyl)-pyridine], the IC50 is 110 nM.

Consider `COc1cccnc1COc1ccc(-c2nn(CCF)cc2-c2ccncc2)cc1` [Compound B16, 2-[[4-[1-(2-fluoroethyl)-4-(4-pyridinyl)-1H-pyrazol-3-yl]phenoxy]methyl]-3-methoxy-pyridine.succinate], for which the IC50 was 3.72 nM.

For `COc1ccc(COc2ccc(-c3nn(CCCF)cc3-c3ccncc3)cc2)nc1` [Compound B14, 2-[[4-[1-(3-fluoropropyl)-4-(4-pyridinyl)-1H-pyrazol-3-yl]phenoxy]methyl]-5-methoxy-pyridine.0.5 succinate], the IC50 was 14.5 nM.

In the case of `FCCOc1cccnc1COc1ccc(-c2nn(CC(F)(F)F)cc2-c2ccncc2)cc1` [Compound B10, 3-(2-fluoroethoxy)-2-[[4-[4-(4-pyridinyl)-1-(2,2,2-trifluoroethyl)-1H-pyrazol-3-yl]phenoxy]methyl]-pyridine.succinate], the IC50 is 6.31 nM.

`FCCCn1cc(-c2ccncc2)c(-c2ccc(OCc3ncccc3OCCF)cc2)n1` [Compound B13, 3-(2-fluoroethoxy)-2-[[4-[1-(3-fluoropropyl)-4-(4-pyridinyl)-1H-pyrazol-3-yl]phenoxy]methyl]pyridine.succinate]: the IC50 is 13.8 nM.

Turning to `FCCn1cc(-c2ccncc2)c(-c2ccc(OCc3ccc(C4CC4)cn3)cc2)n1` [Compound B23, 5-cyclopropyl-2-[[4-[1-(2-fluoroethyl)-4-(4-pyridinyl)-1H-pyrazol-3-yl]phenoxy]methyl]-pyridine], the IC50 is 34.7 nM.

Regarding `CCOc1cccc(COc2ccc(-c3nn(CCF)cc3-c3ccncc3)cc2)n1` [Compound B25, 2-ethoxy-6-[[4-[1-(2-fluoroethyl)-4-(4-pyridinyl)-1H-pyrazol-3-yl]phenoxy]methyl]-pyridine.succinate], the IC50 is 20.9 nM.

Take `N#Cc1ccc(COc2ccc(-c3nn(CCF)cc3-c3ccncc3)cc2)nc1` [Compound B21, 6-[[4-[1-(2-fluoroethyl)-4-(4-pyridinyl)-1H-pyrazol-3-yl]phenoxy]methyl]-3-pyridinecarbonitrile]: the pIC50 was found to be 7.1.

Consider `FCCn1cc(-c2ccncc2)c(-c2ccc(OCc3ncccc3F)cc2)n1` [Compound B18, 3-fluoro-2-[[4-[1-(2-fluoroethyl)-4-(4-pyridinyl)-1H-pyrazol-3-yl]phenoxy]methyl]-pyridine.1.2 succinate], for which the IC50 was 16.2 nM.

On to `FCCn1cc(-c2ccncc2)c(-c2ccc(OCc3cccc(Br)n3)cc2)n1` [Compound B6, 2-bromo-6-[[4-[1-(2-fluoroethyl)-4-(4-pyridinyl)-1H-pyrazol-3-yl]phenoxy]methyl]-pyridine.0.75 succinate], for which the IC50 was 9.77 nM.

Take `Cc1cccc(COc2ccc(-c3nn(CCF)cc3-c3ccncc3)cc2)n1` [Compound B1, 2-[[4-[1-(2-fluoroethyl)-4-(4-pyridinyl)-1H-pyrazol-3-yl]phenoxy]methyl]-6-methyl-pyridine.dihydrochloride]: the pIC50 came to 8.6.

With `FCCOc1cccnc1COc1ccc(-c2nn(CCF)cc2-c2ccncc2)cc1` [Compound B17, 3-(2-fluoroethoxy)-2-[[4-[1-(2-fluoroethyl)-4-(4-pyridinyl)-1H-pyrazol-3-yl]phenoxy]methyl]pyridine.succinate], the IC50 is 3.8 nM.

Regarding `FCCOc1ccc(COc2ccc(-c3nn(CC(F)(F)F)cc3-c3ccncc3)cc2)nc1` [Compound B11, 5-(2-fluoroethoxy)-2-[[4-[4-(4-pyridinyl)-1-(2,2,2-trifluoroethyl)-1H-pyrazol-3-yl]phenoxy]methyl]-pyridine], the IC50 was 107 nM.

In the case of `Cc1cnc(COc2ccc(-c3nn(CCF)cc3-c3ccncc3)cc2)c(C)c1C` [Compound B28, 2-[[4-[1-(2-fluoroethyl)-4-(4-pyridinyl)-1H-pyrazol-3-yl]phenoxy]methyl]-3,4,5-trimethyl-pyridine.succinate], the IC50 is 4.37 nM.

In the case of `COc1cccc(COc2ccc(-c3nn(CCF)cc3-c3ccncc3)cc2)n1` [Compound B24, 2-[[4-[1-(2-fluoroethyl)-4-(4-pyridinyl)-1H-pyrazol-3-yl]phenoxy]methyl]-6-methoxy-pyridine.succinate], the IC50 was 2.95 nM.
